Assay [1] concerns X4 tropic HIV-1 NL4-3. The following applies: TZM-bl cells. The protocol:
HIV inhibition test were performed by seeding 4000 P4-R5 MAGI cells (P. Charneau et al., J. Mol. Biol. 241: 651, 1994) in 100 μl of DMEM (10% FCS, 100 U/ml penicillin G, and 100 μg/ml streptomycin sulfate). P4-R5 cells are stably transfected with an LTR-lacZ cassette and upon successful infection by HIV-1 will express—galactosidase in a Tat-dependent manner, which can be detected in a chemiluminescence test. On the following day, aliquots of the fractions were added. Therefor the lyophilized fractions were resuspended in 80 μl of DMEM, and 25 μl each thereof was pipetted to P4-R5 cells, incubated at 37° C. for 1 hour and subsequently infected with HIV-1 NL4—3 (1 ng of p24 antigen). Virus stocks were obtained by transient infection of 293T cells with proviral DNA by the calcium phosphate method (CalPhos™ Mammalian Transfection Kit, Clontech). Virus stocks were harvested 48 hours post transfection, filtrated and used for infection. Three days post infection, β-galactosidase activity in infected P4-R5 cells was detected using GalScreen assay (TROPIX) as recommended by the manufacturer. Briefly, supernatant was removed, 40 μl of a 1:1 dilution of PBS/GalScreen+substrate was added, followed by incubation at room temperature for 30 min. Then 30 μl of the lysates were transferred into 96 well lumiplates. Subsequently, the lumines-cence was detected as relative light units per second in a luminometer (Berthold, ORION). From all measurements, the mean β-galactosidase background activity of non-infected control cells was subtracted. % infection values for each infection were calculated relative to no peptide containing controls (100%). The enzyme activities in measurements without ALB408-423 were set at 100%, and all other values were based thereon. The final purification (7th step) was examined under exactly the same conditions in TZM-bl cells (X. Wei et al., Antimicrob. Agents Chemother. 46: 1896, 2002).
1.6 mg of fraction 31 from the 7th step in Example 1 was dissolved in 160 μl of DMEM. Subsequently, 10 μl of serial dilutions of fraction 31 containing ALB408-423 were added to 60 μl of TZM-bl cells (60 μl) and infected with 1 ng of p24 antigen HIV-1 NL4—3 in a total volume of 100 μl. Three days later, infection rates were determined in a GalScreen assay (see Example 1).
5000 TZM-bl cells were seeded in 100 μl of DMEM (10% FCS, 100 U/ml of penicillin G and 100 μg/ml of streptomycin sulfate). ALB408-423 was dissolved in PBS (10 mg/ml). One day later, 20 μl serial dilutions of ALB408-423 in PBS were added to cells and cells were subsequently infected with 0.5 ng of p24 antigen HIV-1 in a total volume of 200 μl. HIV-1 molecular clones differing in coreceptor tropism were used and generated as described (Papkalla et al., J. Virol. 76: 8455-9, 2002).
Table 1. Antiviral activity of various ALB fragments against X4 tropic HIV-1 NL4-3 infection. TZM-bl cells containing serial dilutions of synthetic peptides were infected with HIV-1 NL4-3 and infection rates were determined and calculated as described in example 1 and 2 at two days post infection. IC50 values were determined using the GraphPad Prism software package.
Various ALB408-423 derivatives containing N or C terminal deletions or amino acid substitutions (Table 1) were chemically synthesized and lyophilized peptides were dissolved in PBS. The antiviral activity was analyzed in TZM-bl cells using X4 tropic HIV-1 NL4-3 as described (example 4).

The target of assay [2] is T1, CXCR1 (Homo sapiens, UniProt P25024).
T1 sequence (P25024 1-350): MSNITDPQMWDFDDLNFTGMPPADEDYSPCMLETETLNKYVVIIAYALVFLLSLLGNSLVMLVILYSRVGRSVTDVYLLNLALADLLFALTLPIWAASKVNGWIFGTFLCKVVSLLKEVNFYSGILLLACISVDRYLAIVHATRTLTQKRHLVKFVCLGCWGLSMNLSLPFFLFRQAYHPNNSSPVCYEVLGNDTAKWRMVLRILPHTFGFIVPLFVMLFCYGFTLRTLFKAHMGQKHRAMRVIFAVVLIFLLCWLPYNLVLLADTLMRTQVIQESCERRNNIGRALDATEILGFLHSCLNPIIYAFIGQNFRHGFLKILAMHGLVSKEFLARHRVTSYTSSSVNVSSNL
Briefly: Ca2+ mobilization in HEK EGFP-CXCR1 cells (indo-1). Particulars: 50 μM peptide. In general terms: A change in cytosolic calcium serves as a functional read-out for many receptors and channels.
Procedure: Intracellular Ca^2+ release measurement was carried out as described (Palanche et al., 2001, JBC 276:34853-34861; Vollmer et al., 1999, JBC 274:37915-37922) using indo-1 acetoxymethyl ester as the calcium probe. Cellular responses were recorded at 37° C. in stirred 1 mL cuvette with excitation set at 355 nm and emission set at 405 nm and 475 nm using a spectrofluorimeter. The human chemokines CCL5 and CXCL8 were purchased from Becton Dickinson Biosciences (San Jose, Calif.).
Intracellular Ca^2+ responses were measured using a spectrofluorimeter.
Values shown are mean calcium peak responses from duplicate experiments relative to chemokine only treated cells (100%).
Ca^2+ responses were recorded. […] In order to gain insight into compound selectivity, we next characterized the effect of the peptide on calcium responses of various chemokine/receptor pairs.

Read-outs that look alike come from different tables or passages of the source. Ends that are not written are not given here.

“LVRYTKKVPQVSTPTL [ALB408-423, LVRYTKKVPQVSTPTL]”: the IC50 is 10 to 20 µM in assay [1] (read-out: IC50, X4 tropic HIV-1 infection (Example 5), HIV-1 NL4-3) and 7.6 ± 1.2 µM in assay [1] (read-out: IC50 ± SEM, X4 tropic HIV-1 NL4-3, two days post infection, synthetic peptides). Also, the “effect on CXCL8-evoked calcium responses” value in assay [2] (HEK EGFP-CXCR1 cells) was “no effect”. The “agonism: calcium response induced by the peptide alone, CXCR1” value in assay [2] (no chemokine) is reported as “does not induce any calcium response”.

Broadly, the IC50 is the concentration that gives 50% inhibition.

The values are drawn from patent publication US9045563B2, “CXC chemokine receptor 4 (CXCR4) antagonistic polypeptide” (priority 2007, dated 2015).
